Read-outs that look alike come from different tables or passages of the source.
How the values were obtained:
Format in all cases: in vivo
[1] = tested on: ABUTH; test: Herbicidal activity, upland test, pre-emergence
Method: (§1) The sterilized sandy loam soil is filled in test pot having a surface area of 348 cm^2 for upland test conditions or 115 cm^2 for paddy test species were planted in furrows.
(§2) For the pre-emergent tests, were sprayed on the soil one day after planting test compound in a mixture of acetone and 7 ml of the water containing up to 0.1% Tween 20.
(§3) The concentration of the test compound in solution was varied to give a range of application rates, generally 4.0 kg/ha and submultiples thereof. The pots were placed in a greenhouse and watered regularly at the soil surface for 21 days and herbicidal effects were visually rated by a percent control.
(§4) The herbicidal activity data were taken visually by percent control, wherein 0 signifies no herbicidal effect and 100 signifies complete kill.

[2] = tested on: GLXMX; test: Herbicidal activity, upland test, pre-emergence
Method: as §1, §2, §3, §4

[3] = tested on: GOSHI; test: Herbicidal activity, upland test, pre-emergence
Method: as §1, §2, §3, §4

[4] = tested on: ORYSA; test: Herbicidal activity, upland test, pre-emergence
Method: as §1, §2, §3, §4

[5] = tested on: PANDI; test: Herbicidal activity, upland test, pre-emergence
Method: as §1, §2, §3, §4

[6] = tested on: ABUTH; test: Herbicidal activity, upland test, post-emergence
Excerpt: as §1
(§5) The pots for the post-emergent tests were placed in a greenhouse and watered for 9~14 days, then the foliage of test plants was sprayed with a solution of the test compound in a mixture of acetone and water containing a small amount of Tween 20.
(§6) After spraying the plants were kept for one day, then watered regularly for 14 to 21 days, and herbicidal activity data were recorded.
as §4

[7] = tested on: AESIN; test: Herbicidal activity, upland test, post-emergence
Excerpt: as §1, §5, §6, §4

[8] = tested on: BROJA; test: Herbicidal activity, upland test, post-emergence
Excerpt: as §1, §5, §6, §4

[9] = tested on: DIGSA; test: Herbicidal activity, upland test, post-emergence
Excerpt: as §1, §5, §6, §4

[10] = tested on: ECHOR; test: Herbicidal activity, upland test, post-emergence
Excerpt: as §1, §5, §6, §4

[11] = tested on: GLXMX; test: Herbicidal activity, upland test, post-emergence
Excerpt: as §1, §5, §6, §4

[12] = tested on: GOSHI; test: Herbicidal activity, upland test, post-emergence
Excerpt: as §1, §5, §6, §4

[13] = tested on: ORYSA; test: Herbicidal activity, upland test, post-emergence
Excerpt: as §1, §5, §6, §4

[14] = tested on: PANDI; test: Herbicidal activity, upland test, post-emergence
Excerpt: as §1, §5, §6, §4

[15] = tested on: SOLNI; test: Herbicidal activity, upland test, post-emergence
Excerpt: as §1, §5, §6, §4

[16] = tested on: SORBI; test: Herbicidal activity, upland test, post-emergence
Excerpt: as §1, §5, §6, §4

[17] = tested on: TRZAW; test: Herbicidal activity, upland test, post-emergence
Excerpt: as §1, §5, §6, §4

[18] = tested on: ZEAMX; test: Herbicidal activity, upland test, post-emergence
Excerpt: as §1, §5, §6, §4

[19] = tested on: ECHOR; test: Herbicidal activity for paddy test
Outline: (§7)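 Paddy test species were sown in furrows in sterilized sandy loam soil filled into pots with a 115 cm^2 surface area. Herbicidal activity was scored visually as percent control, from 0 (no effect) to 100 (complete kill).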

[20] = tested on: MOOVA; test: Herbicidal activity for paddy test
Outline: as §7

[21] = tested on: ORYSA; test: Herbicidal activity for paddy test; details: for plant injury at 2 g/ha: 0.002 kg/ha; for plant injury at 8 g/ha: 0.008 kg/ha; for plant injury at 31 g/ha: 0.031 kg/ha; for plant injury at 125 g/ha: 0.125 kg/ha; for plant injury at 500 g/ha: 0.500 kg/ha
Outline: as §7

[22] = tested on: SAGPY; test: Herbicidal activity for paddy test
Outline: as §7

[23] = tested on: SCPJU; test: Herbicidal activity for paddy test
Outline: as §7

[24] = 3 Leaf, read-out: Herbicidal activity, ORYSA (3 Leaf)
[25] = seed, read-out: Herbicidal activity, ORYSA (seed)

CCC(=NOC)C1=C(O)CC(c2c(C)c(C)c3c(c2C)CC(C)(C)C3)CC1=O (stereo not drawn) [Compound 1]
Herbicidal activity, ABUTH ([1]; 0.016 kg/ha): 0 % inhibition | Herbicidal activity, ABUTH ([1]; 0.063 kg/ha): 0 % inhibition | Herbicidal activity, ABUTH ([1]; 1.000 kg/ha): 0 % inhibition | Herbicidal activity, ABUTH ([1]; 1.250 kg/ha): 0 % inhibition | Herbicidal activity, GLXMX ([2]; 0.016 kg/ha): 0 % inhibition | Herbicidal activity, GLXMX ([2]; 0.063 kg/ha): 0 % inhibition | Herbicidal activity, GLXMX ([2]; 1.000 kg/ha): 0 % inhibition | Herbicidal activity, GLXMX ([2]; 1.250 kg/ha): 0 % inhibition | Herbicidal activity, GOSHI ([3]; 0.016 kg/ha): 0 % inhibition | Herbicidal activity, GOSHI ([3]; 0.063 kg/ha): 0 % inhibition | Herbicidal activity, GOSHI ([3]; 1.000 kg/ha): 0 % inhibition | Herbicidal activity, GOSHI ([3]; 1.250 kg/ha): 0 % inhibition | Herbicidal activity, ORYSA ([4]; 0.016 kg/ha): 0 % inhibition | Herbicidal activity, ORYSA ([4]; 0.063 kg/ha): 30 % inhibition | Herbicidal activity, ORYSA ([4]; 1.000 kg/ha): 100 % inhibition | Herbicidal activity, ORYSA ([4]; 1.250 kg/ha): 100 % inhibition | Herbicidal activity, PANDI ([5]; 0.016 kg/ha): 0 % inhibition | Herbicidal activity, PANDI ([5]; 0.063 kg/ha): 100 % inhibition | Herbicidal activity, PANDI ([5]; 1.000 kg/ha): 100 % inhibition | Herbicidal activity, PANDI ([5]; 1.250 kg/ha): 100 % inhibition | Herbicidal activity, ABUTH ([6]; 0.016 kg/ha): 0 % inhibition | Herbicidal activity, ABUTH ([6]; 0.063 kg/ha): 0 % inhibition | Herbicidal activity, ABUTH ([6]; 1.000 kg/ha): 0 % inhibition | Herbicidal activity, ABUTH ([6]; 1.250 kg/ha): 0 % inhibition | Herbicidal activity, AESIN ([7]; 0.016 kg/ha): 0 % inhibition | Herbicidal activity, AESIN ([7]; 0.063 kg/ha): 0 % inhibition | Herbicidal activity, AESIN ([7]; 1.000 kg/ha): 0 % inhibition | Herbicidal activity, AESIN ([7]; 1.250 kg/ha): 0 % inhibition | Herbicidal activity, BROJA ([8]; 0.016 kg/ha): 0 % inhibition | Herbicidal activity, BROJA ([8]; 0.063 kg/ha): 40 % inhibition | Herbicidal activity, BROJA ([8]; 1.000 kg/ha): 100 % inhibition | Herbicidal activity, BROJA ([8]; 1.250 kg/ha): 70 % inhibition | Herbicidal activity, DIGSA ([9]; 0.016 kg/ha): 70 % inhibition | Herbicidal activity, DIGSA ([9]; 0.063 kg/ha): 100 % inhibition | Herbicidal activity, DIGSA ([9]; 1.000 kg/ha): 100 % inhibition | Herbicidal activity, DIGSA ([9]; 1.250 kg/ha): 100 % inhibition | Herbicidal activity, ECHOR ([10]; 0.016 kg/ha): 60 % inhibition | Herbicidal activity, ECHOR ([10]; 0.063 kg/ha): 100 % inhibition | Herbicidal activity, ECHOR ([10]; 1.000 kg/ha): 100 % inhibition | Herbicidal activity, ECHOR ([10]; 1.250 kg/ha): 100 % inhibition | Herbicidal activity, GLXMX ([11]; 0.016 kg/ha): 0 % inhibition | Herbicidal activity, GLXMX ([11]; 0.063 kg/ha): 0 % inhibition | Herbicidal activity, GLXMX ([11]; 1.000 kg/ha): 60 % inhibition | Herbicidal activity, GLXMX ([11]; 1.250 kg/ha): 20 % inhibition | Herbicidal activity, GOSHI ([12]; 0.016 kg/ha): 0 % inhibition | Herbicidal activity, GOSHI ([12]; 0.063 kg/ha): 30 % inhibition | Herbicidal activity, GOSHI ([12]; 1.000 kg/ha): 50 % inhibition | Herbicidal activity, GOSHI ([12]; 1.250 kg/ha): 40 % inhibition | Herbicidal activity, ORYSA ([13]; 0.016 kg/ha): 0 % inhibition | Herbicidal activity, ORYSA ([13]; 0.063 kg/ha): 50 % inhibition | Herbicidal activity, ORYSA ([13]; 1.000 kg/ha): 100 % inhibition | Herbicidal activity, ORYSA ([13]; 1.250 kg/ha): 100 % inhibition | Herbicidal activity, PANDI ([14]; 0.016 kg/ha): 40 % inhibition | Herbicidal activity, PANDI ([14]; 0.063 kg/ha): 100 % inhibition | Herbicidal activity, PANDI ([14]; 1.000 kg/ha): 100 % inhibition | Herbicidal activity, PANDI ([14]; 1.250 kg/ha): 100 % inhibition | Herbicidal activity, SOLNI ([15]; 0.016 kg/ha): 0 % inhibition | Herbicidal activity, SOLNI ([15]; 0.063 kg/ha): 0 % inhibition | Herbicidal activity, SOLNI ([15]; 1.000 kg/ha): 0 % inhibition | Herbicidal activity, SOLNI ([15]; 1.250 kg/ha): 0 % inhibition | Herbicidal activity, SORBI ([16]; 0.016 kg/ha): 0 % inhibition | Herbicidal activity, SORBI ([16]; 0.063 kg/ha): 20 % inhibition | Herbicidal activity, SORBI ([16]; 1.000 kg/ha): 100 % inhibition | Herbicidal activity, SORBI ([16]; 1.250 kg/ha): 60 % inhibition | Herbicidal activity, TRZAW ([17]; 0.016 kg/ha): 30 % inhibition | Herbicidal activity, TRZAW ([17]; 0.063 kg/ha): 40 % inhibition | Herbicidal activity, TRZAW ([17]; 1.000 kg/ha): 100 % inhibition | Herbicidal activity, TRZAW ([17]; 1.250 kg/ha): 60 % inhibition | Herbicidal activity, ZEAMX ([18]; 0.016 kg/ha): 0 % inhibition | Herbicidal activity, ZEAMX ([18]; 0.063 kg/ha): 30 % inhibition | Herbicidal activity, ZEAMX ([18]; 1.000 kg/ha): 100 % inhibition | Herbicidal activity, ZEAMX ([18]; 1.250 kg/ha): 100 % inhibition | pest or weed control at 2 g/ha ([19]; 0.002 kg/ha): 95% | pest or weed control at 8 g/ha ([19]; 0.008 kg/ha): 95% | pest or weed control at 31 g/ha ([19]; 0.031 kg/ha): 100% | pest or weed control at 125 g/ha ([19]; 0.125 kg/ha): 100% | pest or weed control at 500 g/ha ([19]; 0.500 kg/ha): 100% | pest or weed control at 2 g/ha ([20]; 0.002 kg/ha): 0% | pest or weed control at 8 g/ha ([20]; 0.008 kg/ha): 0% | pest or weed control at 31 g/ha ([20]; 0.031 kg/ha): 0% | pest or weed control at 125 g/ha ([20]; 0.125 kg/ha): 0% | pest or weed control at 500 g/ha ([20]; 0.500 kg/ha): 0% | plant injury at 2 g/ha [21, 24]: 0% | plant injury at 8 g/ha [21, 24]: 0% | plant injury at 31 g/ha [21, 24]: 0% | plant injury at 125 g/ha [21, 24]: 90% | plant injury at 500 g/ha [21, 24]: 100% | plant injury at 2 g/ha [21, 25]: 0% | plant injury at 8 g/ha [21, 25]: 70% | plant injury at 31 g/ha [21, 25]: 100% | plant injury at 125 g/ha [21, 25]: 100% | plant injury at 500 g/ha [21, 25]: 100% | pest or weed control at 2 g/ha ([22]; 0.002 kg/ha): 0% | pest or weed control at 8 g/ha ([22]; 0.008 kg/ha): 0% | pest or weed control at 31 g/ha ([22]; 0.031 kg/ha): 0% | pest or weed control at 125 g/ha ([22]; 0.125 kg/ha): 0% | pest or weed control at 500 g/ha ([22]; 0.500 kg/ha): 0% | pest or weed control at 2 g/ha ([23]; 0.002 kg/ha): 0% | pest or weed control at 8 g/ha ([23]; 0.008 kg/ha): 0% | pest or weed control at 31 g/ha ([23]; 0.031 kg/ha): 0% | pest or weed control at 125 g/ha ([23]; 0.125 kg/ha): 0% | pest or weed control at 500 g/ha ([23]; 0.500 kg/ha): 0%

— patent US6096930A, “Herbicidal cyclohexane-1,3-dione derivatives and their preparation process” (Korea Research Institute of Chemical Technology, priority 1994, dated 2000)
